# Experiments:
# Type in all cases: functional
# Streptococcus agalactiae = assay: Antibacterial activity against Streptococcus agalactiae RFB141 after 24 hrs by microdilution method; details: RFB141, 24 h
# Staphylococcus aureus [1] = assay: Antibacterial activity against Staphylococcus aureus ATCC 25923 after 24 hrs by microdilution method; details: ATCC 25923, 24 h
# Listeria monocytogenes [2] = assay: Antibacterial activity against Listeria monocytogenes LMG 23905 after 24 hrs by microdilution method; details: LMG 23905, 24 h
# Listeria monocytogenes [3] = assay: Antibacterial activity against Listeria monocytogenes LMG 21263 after 24 hrs by microdilution method; details: LMG 21263, 24 h
# Staphylococcus aureus [4] = assay: Antibacterial activity against Staphylococcus aureus RFB127 after 24 hrs by microdilution method; details: RFB127, 24 h
# Listeria innocua = assay: Antibacterial activity against Listeria innocua ATCC 33090 after 24 hrs by microdilution method; details: ATCC 33090, 24 h
# [5] = test system: Staphylococcus epidermidis; assay: Antibacterial activity against Staphylococcus epidermidis ATCC 1228 after 24 hrs by microdilution method; details: ATCC 1228, 24 h
# Kocuria rhizophila = assay: Antibacterial activity against Micrococcus luteus ATCC 9341 after 24 hrs by microdilution method
# Priestia megaterium = assay: Antibacterial activity against Bacillus megaterium RFB124 after 24 hrs by microdilution method; details: RFB124, 24 h
# Enterococcus faecalis [6] = assay: Antibacterial activity against Enterococcus faecalis ATCC 29212 after 24 hrs by microdilution method; details: ATCC 29212, 24 h
# Staphylococcus aureus [7] = assay: Antibacterial activity against methicillin-resistant Staphylococcus aureus ATCC 43300 after 24 hrs by microdilution method; details: ATCC 43300, 24 h
# Bacillus spizizenii = assay: Antibacterial activity against Bacillus subtilis ATCC 6633 after 24 hrs by microdilution method; details: ATCC 6633, 24 h
# Bacillus cereus = assay: Antibacterial activity against Bacillus cereus RFB125 after 24 hrs by microdilution method; details: RFB125, 24 h
# Enterococcus faecium [8] = assay: Antibacterial activity against Enterococcus faecium RFB128 after 24 hrs by microdilution method; details: RFB128, 24 h
# Lactococcus lactis = assay: Antibacterial activity against Lactococcus lactis MG1614 by agar diffusion assay
# Micrococcus luteus [9] = assay: Antibacterial activity against Micrococcus luteus […] 8166 by agar diffusion assay
# Staphylococcus aureus [10] = assay: Ratio of MIC for Staphylococcus aureus 137/93A to MIC for Staphylococcus aureus SG511
# Staphylococcus aureus [11] = assay: Antibacterial activity against Staphylococcus aureus 137/93A after 18 hrs by broth microdilution method
# Enterococcus faecium [12] = assay: Antibacterial activity against vancomycin-resistant Enterococcus faecium 7131121 after 18 to 20 hrs by agar well diffusion method
# Streptococcus pneumoniae = assay: Antibacterial activity against Streptococcus pneumoniae BAA-255 after 18 to 20 hrs by agar well diffusion method
# Enterococcus faecium [13] = assay: Antibacterial activity against Enterococcus faecium ATCC 19579 after 18 to 20 hrs by agar well diffusion method
# Staphylococcus aureus [14] = assay: Antibacterial activity against Staphylococcus aureus 137/93G after 18 hrs by broth microdilution method
# Staphylococcus aureus [15] = assay: Antibacterial activity against methicillin-resistant Staphylococcus aureus R33 after 18 to 20 hrs by agar well diffusion method
# Micrococcus luteus [16] = assay: Antibacterial activity against Micrococcus luteus ATCC 4698 after 18 to 20 hrs by agar well diffusion method; details: NCTC 2665
# Staphylococcus aureus [17] = assay: Antibacterial activity against Staphylococcus aureus SG511 after 18 hrs by broth microdilution method; details: SG511, 18 h
# Enterococcus faecalis [18] = assay: Antibacterial activity against Enterococcus faecalis ATCC 29212 after 18 to 20 hrs by agar well diffusion method
# [19] = test system: Staphylococcus epidermidis; assay: Antibacterial activity against Staphylococcus epidermidis NCTC 11047 after 18 to 20 hrs by agar well diffusion method
# [20] = Ratio of MIC for Enterococcus faecalis ATCC 29212 to MIC for Enterococcus faecium ATCC 19579
# Staphylococcus aureus [21] = assay: Antibacterial activity against Staphylococcus aureus SH1000 after 18 to 20 hrs by agar well diffusion method
compound,measurement,setting,value
C/C=C(\NC(=O)[C@H](Cc1cnc[nH]1)NC(=O)/C(=C/C)NC(=O)[C@@H]1CCCN1C(=O)[C@@H]1CSC[C@@H]2NC(=O)[C@H](CC(C)C)NC(=O)[C@@H](NC(=O)[C@H]3CSC[C@@H](NC(=O)[C@@H](NC(=O)CNC(=O)[C@H](CCCNC(=N)N)NC(=O)[C@H](CCC(N)=O)NC(=O)[C@H](CCC(=O)O)NC(=O)[C@H](C)N)[C@H](C)CC)C(=O)N[C@@H](CCC(N)=O)C(=O)NCC(=O)N[C@H](CC(N)=O)C(=O)N[C@H](CC(=O)O)C(=O)NCC(=O)N[C@H](CCCCN)C(=O)N[C@@H](CC(C)C)C(=O)N3)CSC[C@@H](NC(=O)[C@H](CCC(=O)O)NC(=O)[C@H](Cc3c[nH]c4ccccc34)NC2=O)C(=O)NCC(=O)N[C@@H](CC(C)C)C(=O)N1)C(=O)N[C@@H](CS)C(=O)N[C@H](Cc1c[nH]c2ccccc12)C(=O)N[C@H](CS)C(=O)O,MIC,Streptococcus agalactiae,2.8 µM
same,MIC,Staphylococcus aureus [1],2.8 µM
same,MIC,Listeria monocytogenes [2],0.4 µM
same,MIC,Listeria monocytogenes [3],0.5 µM
same,MIC,Staphylococcus aureus [4],1.4 µM
same,MIC,Listeria innocua,0.7 µM
same,MIC,[5],2.8 µM
same,MIC,Kocuria rhizophila,0.7 µM
same,MIC,Priestia megaterium,0.4 µM
same,MIC,Enterococcus faecalis [6],1.4 µM
same,MIC,Staphylococcus aureus [7],0.4 µM
same,MIC,Bacillus spizizenii,1.4 µM
same,MIC,Bacillus cereus,0.2 µM
same,MIC,Enterococcus faecium [8],0.1 µM
C=C(NC(=O)[C@@H](NC(=O)[C@H](CCCCN)NC(=O)[C@H]1CSC(C)C2NC(=O)[C@H](CC(C)C)NC(=O)C(NC(=O)[C@@H](CCC(N)=O)NC(=O)[C@@H](CC(C)C)NC(=O)[C@@H](Cc3ccccc3)NC(=O)[C@H]3CSC(C)C(NC(=O)[C@@H](NC(=O)[C@H]4CSC(C)C(NC(=O)[C@H]5CSC[C@@H](NC(=O)[C@@H](CCCCN)NC(=O)[C@H](Cc6c[nH]c7ccccc67)NC(=O)CCC(=O)O)C(=O)N[C@H](CCC(=O)O)C(=O)NC(=C)C(=O)N[C@H](CC(C)C)C(=O)N5)C(=O)N5CCC[C@H]5C(=O)NCC(=O)N4)C(C)C)C(=O)NCC(=O)N[C@H](C)C(=O)N[C@H](CC(C)C)C(=O)N[C@H](CCC(N)=O)C(=O)N/C(=C\C)C(=O)N3)C(C)SC[C@H](NC2=O)C(=O)N[C@@H](CC(N)=O)C(=O)N1)[C@@H](C)CC)C(=O)N[C@H](CCCCN)C(=O)O (some centres undefined),MIC,Lactococcus lactis,5.55 µM
same,MIC,Micrococcus luteus [9],0.0994 µM
C=C1NC(=O)C2NC(=O)[C@H](CC(C)C)NC(=O)C(NC(=O)[C@@H]3CSC(C)[C@H](NC(=O)[C@H](Cc4ccccc4)NC(=O)C4NC(=O)[C@@H](N)CSC4C)C(=O)N[C@@H](CC(C)C)C(=O)N4CCC[C@H]4C(=O)NCC(=O)NCC(=O)NCC(=O)NCC(=O)N[C@@H](C(C)C)C(=O)N3)C(C)SC[C@@H](NC(=O)[C@H](CCC(=O)O)NC1=O)C(=O)N[C@@H]([C@H](C)CC)C(=O)N/C=C/SC2C (some centres undefined),Ratio,Staphylococcus aureus [10],35
same,MIC,Staphylococcus aureus [11],19.2 µM
same,MIC,Enterococcus faecium [12],35.1 µM
same,MIC,Streptococcus pneumoniae,1.1 µM
same,MIC,Enterococcus faecium [13],17.5 µM
same,MIC,Staphylococcus aureus [14],16.4 µM
same,MIC,Staphylococcus aureus [15],17.5 µM
same,MIC,Micrococcus luteus [16],0.657 µM
same,MIC,Staphylococcus aureus [17],0.548 µM
same,MIC,Enterococcus faecalis [18],35.1 µM
same,MIC,[19],8.94 µM
same,Ratio,[20],2
same,MIC,Staphylococcus aureus [21],17.5 µM

# — ChEMBL document CHEMBL3751701, “Class I and Class II Lanthipeptides Produced by Bacillus spp” (2015)
